# Reference: ChEMBL document CHEMBL2169748 (J Med Chem, 2012)
# What was measured:
# [1] = Oral bioavailability in dog; assay type: ADME, organism-based, Canis lupus familiaris; conditions: in vivo
# [2] = Half life in dog; assay type: ADME, organism-based, Canis lupus familiaris; conditions: in vivo
# [3] = Half life in rat; assay type: ADME, organism-based; conditions: in vivo
# [4] = Volume of distribution at steady state in rat; assay type: ADME, organism-based; conditions: in vivo, read-out: Vdss
# [5] = Volume of distribution at steady state in dog; assay type: ADME, organism-based, Canis lupus familiaris; conditions: in vivo, read-out: Vdss
# [6] = Clearance in dog; assay type: ADME, organism-based, Canis lupus familiaris; conditions: in vivo
# [7] = Clearance in rat; assay type: ADME, organism-based; conditions: in vivo
# [8] = Permeability across MDCK cells; assay type: ADME, cell-based, Canis lupus familiaris; conditions: dog
# [9] = Solubility in aqueous solution at pH 6.5; assay type: physicochemical
# [10] = Oral bioavailability in rat; assay type: ADME, organism-based; conditions: in vivo
bioavailability [1],half-life [2],half-life [3],Vd [4],Vd [5],clearance [6],clearance [7],Papp [8],solubility [9],bioavailability [10],SMILES
56%,3.6 h,2.6 h,6.5 L/kg,6.5 L/kg,25 mL/min/kg,34 mL/min/kg,16 ×10⁻⁶ cm/s,338 µg/mL,–,CCc1nc2ccccc2n1-c1nc(N2CCOCC2)c2nc(CN3CC(C4CCOCC4)C3)n(C)c2n1
> 100%,6.4 h,1.5 h,4.1 L/kg,2 L/kg,5 mL/min/kg,19 mL/min/kg,–,–,92%,CCc1nc2ccccc2n1-c1nc(N2CCOCC2)c2nc(CN3CCC(C(C)(C)O)CC3)n(C)c2n1
